{"source": "patent US20160157479A1", "about": "“ANTIFUNGAL COMPOSITION AND METHOD” (OMEX INTERNATIONAL LIMITED, priority 2013, published 2016)", "key": {"[1]": {"assay": "Light-fastness study (Oxynex ST photostabiliser)", "format": "physicochemical", "settings": "0.1% vanillin, light box 5000 lux", "protocol": "A composition without any photostabiliser was used as a base composition (no photostabiliser).\nMethod: Each formulation was diluted with water to 0.1% vanillin (as pure) and 5 mL was applied by pipette to a glass petri dish. The dishes were left to stand in a light box fitted with 2×40 W fluorescent daylight bulbs with an illumination intensity of 5000 lux. The dishes were extracted with methanol and made up to 25 mL in a volumetric flask after 3 and 5 days. Samples were then analysed by HPLC."}, "[2]": {"assay": "Light-fastness study, addition of ascorbic acid", "format": "physicochemical", "settings": "0.1% vanillin, 1500 Lux 5 hours per day", "protocol": "The formulations used for these experiments are described in TABLE 10. Oxynex ST (5%) and Oxynex ST (5%) with ascorbic acid (1%) were added to the composition to determine the effect on photostability.\n(§1) Method: Formulations were diluted with water to 0.1% vanillin and 5 mL transferred by pipette to a 100 mL crystallising dish. All dishes were placed in a light box containing two 60 cm high efficiency 24 W fluorescent bulbs housed in a canopy to provide bright, full spectrum lighting closely resembling daylight (6400 Kelvin). The dishes were covered with muslin sheets to reduce the intensity of the light to 1500 Lux on a programme of 5 hours per day. At specific time intervals the dishes were extracted and made up to volume with methanol. Samples were analysed by HPLC."}, "[3]": {"assay": "Light-fastness study, ratio of Oxynex ST:ascorbic acid", "format": "physicochemical", "settings": "0.1% vanillin, 1500 Lux 5 hours per day", "protocol": "The formulations used for these experiments are described in TABLE 12. Various ratios of Oxynex ST and ascorbic acid were used in the composition to determine the effect on photostability.\nas §1"}, "Photodecomposition study": {"assay": "Photodecomposition study", "format": "physicochemical", "settings": "0.1% vanillin", "protocol": "The following samples were prepared by diluting down the specified composition with water: • VS, vanillin solution in water @ 0.1% vanillin; • 0.4% dilution of RBEF-024 (0.1% vanillin); and • 0.4% dilution of RBEF-030 (0.1% vanillin). • 5 ml of the diluted material was pipetted into 3 pyrex crystallisation dishes; the surface was covered with muslin and the samples placed in a light box for 1, 3 and 5 days respectively with high intensity white light applied for 5 hours out of every 24 hours.\nAs a control, three equivalent samples were placed in crystallisation dishes which were placed in the dark (inside a cupboard).\nAt the end of each time period the contents of the crystallisation dishes were washed out with 4×5 mL methanol (magnetic stirrer used at each addition to dissolve any solid vanillin) and the washings transferred to a 25 mL volumetric flask and made up to volume with methanol.\nAs an initial control (t=0 days), 5 mL of each dilution was pipetted into a 25 mL volumetric flask and made up to volume with methanol."}, "cabbage leaf discs": {"tested_on": "cabbage leaf discs", "assay": "Effect of composition on leaf-penetration", "settings": "0.1% vanillin", "protocol": "14.5 cm cabbage leaf discs were cut and placed in a petri dish and treated with a diluted composition. At the same time a second petri dish (control) was treated with the same diluted composition with no leaf present and stored in the dark for the duration of the test.\nTest time periods were 1, 2, 4, 6 & 24 hours after application. The application was performed using an artist's air brush at low pressure to give a deposit of circa 2 g of spray diluted composition.\nAt the appropriate time period, the leaf disc was washed with methanol and the washings collected and made up to 25 mL with methanol. The appropriate control petri dish was also washed with methanol and the volume made up to 25 mL.\nFor each treatment a spray control was prepared by diluting 5 mL of spray liquid to 50 mL in a volumetric flask with methanol. The spray control is applied to the leaf and is used to determine the amount of vanillin applied to the leaf surface for each test.\nThe amount of vanillin washed from the leaf surface was subtracted from the amount washed from the petri dish control to determine how much of the vanillin has moved into the leaf sub-surface layer as a function of the formulation."}}}
{"molecule": "COc1cc(C=O)ccc1O", "note": "[0.1% Vanillin Technical in water, 4-Hydroxy-3-methoxybenzaldehyde]", "values": [{"measurement": "Loss (%)", "setting": "[1]; 3 days", "value": 6.18, "unit": "%"}, {"measurement": "Vanillin", "setting": "[1]; 3 days", "value": 177.65, "unit": "mg/L"}, {"measurement": "Loss (%)", "setting": "[1]; 5 days", "value": 8.49, "unit": "%"}, {"measurement": "Concentration (mg/dish)", "setting": "[2]; 0 days", "value": 5.87, "unit": "mg/dish"}, {"measurement": "Loss (%)", "setting": "[2]; 0 days", "value": 0.00, "unit": "%"}, {"measurement": "Concentration (mg/dish)", "setting": "[2]; 1 day", "value": 5.85, "unit": "mg/dish"}, {"measurement": "Loss (%)", "setting": "[2]; 1 day", "value": 0.34, "unit": "%"}, {"measurement": "Loss (%)", "setting": "[2]; 3 days", "value": 3.92, "unit": "%"}, {"measurement": "Concentration (mg/dish)", "setting": "[2]; 7 days", "value": 5.53, "unit": "mg/dish"}, {"measurement": "Loss (%)", "setting": "[2]; 7 days", "value": 5.79, "unit": "%"}, {"measurement": "Concentration (mg/dish)", "setting": "[2]; 14 days", "value": 5.22, "unit": "mg/dish"}, {"measurement": "Vanillin (mg/L) 2", "setting": "[3]; 0 days", "value": 200.48, "unit": "mg/L"}, {"measurement": "Vanillin mg/dish", "setting": "[3]; 0 days", "value": 5.02, "unit": "mg/dish"}, {"measurement": "Loss (%)", "setting": "[3]; 1 day", "value": "−1.19", "unit": "%"}, {"measurement": "Vanillin mg/dish", "setting": "[3]; 1 day", "value": 4.96, "unit": "mg/dish"}, {"measurement": "Loss (%)", "setting": "[3]; 2 days", "value": "−0.11", "unit": "%"}, {"measurement": "Vanillin mg/dish", "setting": "[3]; 2 days", "value": 4.96, "unit": "mg/dish"}, {"measurement": "Loss (%)", "setting": "[3]; 3 days", "value": "−1.17", "unit": "%"}, {"measurement": "Vanillin mg/dish", "setting": "[3]; 3 days", "value": 4.90, "unit": "mg/dish"}, {"measurement": "% Vanillin lost by photo-decomposition", "setting": "Photodecomposition study; 0 days", "value": 0.0, "unit": "%"}, {"measurement": "% Vanillin lost by photo-decomposition", "setting": "Photodecomposition study; light box 5 of 24 hours, 1 day", "value": "+0.08%"}, {"measurement": "% Vanillin lost by photo-decomposition", "setting": "Photodecomposition study; light box 5 of 24 hours, 3 day", "value": "+1.50%"}, {"measurement": "% Vanillin lost by photo-decomposition", "setting": "Photodecomposition study; light box 5 of 24 hours, 5 day", "value": "+2.08%"}, {"measurement": "% Vanillin penetrating through leaf cuticle surface", "setting": "cabbage leaf discs; 1 hour after application", "value": 0.4, "unit": "%"}, {"measurement": "% Vanillin penetrating through leaf cuticle surface", "setting": "cabbage leaf discs; 2 hour after application", "value": 2.5, "unit": "%"}, {"measurement": "% Vanillin penetrating through leaf cuticle surface", "setting": "cabbage leaf discs; 4 hour after application", "value": 1.7, "unit": "%"}, {"measurement": "% Vanillin penetrating through leaf cuticle surface", "setting": "cabbage leaf discs; 6 hour after application", "value": 5.0, "unit": "%"}, {"measurement": "% Vanillin penetrating through leaf cuticle surface", "setting": "cabbage leaf discs; 24 hour after application", "value": 8.5, "unit": "%"}]}
